According to patent publication US20140249122A1, “ANTI-DIABETIC AMINOSTEROID DERIVATIVES” (UNIVERSITE NICE SOPHIA ANTIPOLIS, priority 2011, published 2014):
Entries after “also recorded” stand apart in the source; their conditions may differ.

Assays:
[1] = design: species or system mice; conditions: mouse, in vivo
Method: Healthy mice were treated in the same way as previously. A dose of insulin was injected into these mice (at t=0). The blood glucose level of the mice was measured until 120 minutes after the insulin injection. […] The treatment with the ST20 derivative therefore prolongs the effect of insulin.

[2] = system: GLUT4; assay: GLUT4 at the surface of 3T3-L1 adipocytes, with or without insulin; format: cell-based; conditions: for effect on the effectiveness of insulin on GLUT4 translocation: 3T3-L1 adipocytes, 20 minutes, aminosteroid 50 μM, insulin 1 nM present or absent
Excerpt: One of the key components in the insulin-induced uptake of sugar by myocytes and adipocytes is the GLUT4 glucose (sugar) transporter. When insulin binds to its receptor at the surface of these cells, or during a muscle contraction, intracellular signalling pathways are activated, resulting in the translocation of GLUT4 from its intracellular storage compartment to the plasma membrane, where it enables sugar to enter from the extracellular medium. GLUT4 therefore plays an important role in carbohydrate homeostasis and, consequently, in T2D. 3T3-L1 adipocytes are stimulated for 20 minutes with the aminosteroids (50 μM), in the presence or absence of insulin (1 nM), and are labelled for GLUT4 at the surface of the cells. The percentage of GLUT4 at the surface of the cells is then determined.

[3] = system: GLUT4; assay: GLUT4 on the surface of insulin-resistant adipocytes; format: cell-based; conditions: adipocytes made insulin resistant by insulin for 24 h, then insulin for 20 min with or without ST10
[4] = system: GLUT4; assay: Sensitivity of adipocytes to insulin (GLUT4 on the plasma membrane); format: cell-based; conditions: FIG. 3B
Method: The effect of insulin and of ST10 on the amount of GLUT4 on the plasma membrane was measured (FIG. 3A) and the sensitivity of the cells to insulin was calculated (FIG. 3B).

[5] = system: 3T3-L1 adipocytes; assay: Glucose uptake in 3T3-L1 adipocytes; format: cell-based; conditions: various insulin concentrations, with or without ST10

| Structure (SMILES) | severe hypoglycaemia in the ITT [1] | effect on the effectiveness of insulin on GLUT4 translocation [2] | effect of insulin on GLUT4 on the surface of insulin-resistant cells [3] | sensitivity of the cells to insulin [4] | glucose uptake in adipocytes [5] | increase in GLUT4 at the surface of the plasma membrane (PM), ST10 versus trodusquemine ([2]; FIG. 1C) |
| --- | --- | --- | --- | --- | --- | --- |
| CC(C)CCC[C@@H](C)[C@H]1CCC2C3C[C@@H](NCCCCNCCCN)C4=C[C@@H](O)CC[C@]4(C)C3CC[C@@]21C (stereo partly drawn) [ST20, 6β-(spermidine)cholesten-3β-ol] | did not cause severe hypoglycaemia |  |  |  |  |  |
| CC(C)[C@@H](CC[C@@H](C)[C@H]1CC[C@H]2[C@@H]3[C@H](O)C[C@H]4C[C@@H](NCCCNCCCCNCCCN)CC[C@]4(C)[C@H]3CC[C@]12C)OS(=O)(=O)O [trodusquemine, reference compound] |  | not |  |  |  |  |
| CC(C)CCC[C@@H](C)[C@H]1CC[C@H]2[C@@H]3C[C@@H](NCCCNCCCCNCCCN)[C@H]4C[C@@H](O)CC[C@]4(C)[C@H]3CC[C@]12C [ST10, 6β-(spermine)cholestan-3β-ol] |  | increases the effectiveness of insulin on GLUT4 translocation | also increases the effect of the insulin | increases the sensitivity of the cells to insulin | increases glucose uptake in the adipocytes; also recorded: increased by ST10 for all the insulin concentrations tested | greater in the presence of ST10 than in the presence of trodusquemine |
